# ChEMBL document CHEMBL3045593, “Synthesis and Fungicidal Activities of 3-(-Alkoxyiminobenzyl)isoxazole Derivatives” (J Pestic Sci, 1999)
# System: Oculimacula yallundae
# Assay: Fungicidal activity against Oculimacula yallundae inoculated oat seeds followed by transfer of inoculated oat seedlings on foot of wheat seedlings followed by 400 ppm compound spraying assessed as degree of wheat eye spot infection (reference value: 82.9 %)
# Type: functional
row,Compound,Activity [%]
1,CNC(=O)/C(=N/OC)c1ccccc1COc1cc(C)ccc1C,36.7
2,CCCN(CCOc1c(Cl)cc(Cl)cc1Cl)C(=O)n1ccnc1 [PROCHLORAZ],28.3
3,CON=C(c1ccon1)c1ccccc1COc1cc(C)ccc1C,19.8

# System: Blumeria graminis f. sp. tritici
# Assay: Fungicidal activity against Blumeria graminis f. sp. triticii inoculated on wheat seedlings followed by 400 ppm compound application 7 days after fungal inoculation assessed as infected leaf area (reference value: 37.8%)
# Type: functional
row,Compound,Activity [%]
1,CNC(=O)/C(=N/OC)c1ccccc1COc1cc(C)ccc1C,15.5
2,CON=C(c1ccon1)c1ccccc1COc1cc(C)ccc1C,5.8

# System: Golovinomyces cichoracearum
# Assay: Fungicidal activity against Golovinomyces cichoracearum in cucumber seedlings assessed as cucumber powdery mildew disease controlling activity at 500 ppm applied through preventive application relative to untreated control
# Type: functional
row,Compound,Activity [%]
1,CCCON=C(c1ccon1)c1ccccc1COc1cc(C)ccc1C,<90
2,CON=C(c1ccon1)c1ccccc1COc1ccccc1[N+](=O)[O-],<90
3,Cc1ccc(C)c(OCc2ccccc2C(=NOC(C)C)c2ccon2)c1,<90
4,CCON=C(c1ccon1)c1ccccc1COc1cc(C)ccc1C,<90
5,C=CCON=C(c1ccon1)c1ccccc1COc1cc(C)ccc1C,<90
6,CON=C(c1ccon1)c1ccccc1COc1cc(Cl)cc(Cl)c1Cl,90

# System: Golovinomyces cichoracearum
# Assay: Fungicidal activity against Golovinomyces cichoracearum in cucumber seedlings assessed as cucumber powdery mildew disease controlling activity at 7.8 ppm applied through preventive application relative to untreated control
# Type: functional
row,Compound,Activity [%]
1,CON=C(c1ccon1)c1ccccc1COc1ccc(C)cc1C,90
2,CON=C(c1ccon1)c1ccccc1COc1cc(C)cc(C)c1C,90
3,CON=C(c1ccon1)c1ccccc1COc1ccc(F)cc1F,90
4,CON=C(c1ccon1)c1ccccc1COc1ccccc1C,90
5,CON=C(c1ccon1)c1ccccc1COc1ccccc1Cl,90
6,CON=C(c1ccon1)c1ccccc1COc1ccc(Cl)cc1C,90
7,CON=C(c1ccon1)c1ccccc1COc1cc(C)ccc1C,90
8,CON=C(c1ccon1)c1ccccc1COc1ccc(Cl)cc1Cl,90
9,CON=C(c1ccon1)c1ccccc1COc1ccc(Cl)cc1,90
10,CON=C(c1ccon1)c1ccccc1COc1ccc(C)cc1,90
11,CON=C(c1ccon1)c1ccccc1COc1cc(Cl)ccc1Cl,90
12,CON=C(c1ccon1)c1ccccc1COc1cccc(C)c1C,90
13,CON=C(c1ccon1)c1ccccc1COc1ccccc1Br,90

# System: Blumeria graminis f. sp. tritici
# Assay: Fungicidal activity against Blumeria graminis f. sp. triticii inoculated on wheat seedlings followed by 31.3 ppm compound application 7 days after fungal inoculation assessed as wheat powdery mildew disease controlling activity relative to untreated control
# Type: functional
row,Compound,Activity [%]
1,CON=C(c1ccon1)c1ccccc1COc1ccc(Cl)cc1C,90
2,CON=C(c1ccon1)c1ccccc1COc1cc(Cl)ccc1Cl,90

# System: Golovinomyces cichoracearum
# Assay: Fungicidal activity against Golovinomyces cichoracearum in cucumber seedlings assessed as cucumber powdery mildew disease controlling activity at 31.3 ppm applied through preventive application relative to untreated control
# Type: functional
row,Compound,Activity [%]
1,CON=C(c1ccon1)c1ccccc1COc1ccc(Cl)c(Cl)c1,90
2,CON=C(c1ccon1)c1ccccc1COc1ccc(F)cc1,90
3,CON=C(c1ccon1)c1ccccc1COc1cc(F)ccc1F,90
4,CON=C(c1ccon1)c1ccccc1COc1ccccc1F,90
5,CON=C(c1ccon1)c1ccccc1COc1ccccc1,90
6,CON=C(c1ccon1)c1ccccc1COc1c(Cl)cccc1Cl,90
7,CON=C(c1ccon1)c1ccccc1COc1ccc(C)c(C)c1,90
8,CCc1ccccc1OCc1ccccc1C(=NOC)c1ccon1,90
9,CON=C(c1ccon1)c1ccccc1COc1cccc(Cl)c1,90
10,CON=C(c1ccon1)c1ccccc1Oc1ccccc1,90
11,CON=C(c1ccon1)c1ccccc1COc1ccccc1C(F)(F)F,90
12,CON=C(c1ccon1)c1ccccc1COc1cccc(C)c1,90

# System: Golovinomyces cichoracearum
# Assay: Fungicidal activity against Golovinomyces cichoracearum in cucumber seedlings assessed as cucumber powdery mildew disease controlling activity at 125 ppm applied through preventive application relative to untreated control
# Type: functional
row,Compound,Activity [%]
1,CON=C(c1ccon1)c1ccccc1COc1ccccc1OC,90
2,Cc1ccc(C)c(OCc2ccccc2C(=NO)c2ccon2)c1,90
3,CON=C(c1ccon1)c1ccccc1COc1cccc(F)c1,90
4,CON=C(c1ccon1)c1ccccc1COc1c(C)cccc1C,90
5,CON=C(c1ccon1)c1ccccc1OCc1ccccc1,90

# System: Blumeria graminis f. sp. tritici
# Assay: Fungicidal activity against Blumeria graminis f. sp. triticii inoculated on wheat seedlings followed by 125 ppm compound application 7 days after fungal inoculation assessed as wheat powdery mildew disease controlling activity relative to untreated control
# Type: functional
row,Compound,Activity [%]
1,CON=C(c1ccon1)c1ccccc1COc1ccc(Cl)c(Cl)c1,90
2,CON=C(c1ccon1)c1ccccc1COc1cc(F)ccc1F,90
3,CC(C)(C)C(=O)C(Oc1ccc(Cl)cc1)n1cncn1 (stereo not drawn) [TRIADIMEFON],97
4,CON=C(c1ccon1)c1ccccc1COc1ccc(C)cc1C,90
5,CON=C(c1ccon1)c1ccccc1COc1ccccc1F,90
6,CON=C(c1ccon1)c1ccccc1COc1ccc(F)cc1F,90
7,CON=C(c1ccon1)c1ccccc1COc1ccccc1Cl,90
8,CON=C(c1ccon1)c1ccccc1COc1ccc(C)c(C)c1,90
9,CCc1ccccc1OCc1ccccc1C(=NOC)c1ccon1,90
10,CON=C(c1ccon1)c1ccccc1COc1c(C)cccc1C,90
11,CON=C(c1ccon1)c1ccccc1COc1ccc(C)cc1,90
12,CON=C(c1ccon1)c1ccccc1COc1cccc(C)c1C,90
13,CON=C(c1ccon1)c1ccccc1COc1ccccc1Br,90
14,CON=C(c1ccon1)c1ccccc1COc1cccc(C)c1,90

# System: Oculimacula yallundae
# Assay: Fungicidal activity against Oculimacula yallundae inoculated oat seeds followed by transfer of inoculated oat seedlings on foot of wheat seedlings followed by 100 ppm compound spraying assessed as degree of wheat eye spot infection (reference value: 82.9 %)
# Type: functional
row,Compound,Activity [%]
1,CNC(=O)/C(=N/OC)c1ccccc1COc1cc(C)ccc1C,66.5
2,CCCN(CCOc1c(Cl)cc(Cl)cc1Cl)C(=O)n1ccnc1 [PROCHLORAZ],63.5
3,CON=C(c1ccon1)c1ccccc1COc1cc(C)ccc1C,36.9

# System: Blumeria graminis f. sp. tritici
# Assay: Fungicidal activity against Blumeria graminis f. sp. triticii inoculated on wheat seedlings followed by 100 ppm compound application 7 days after fungal inoculation assessed as wheat powdery mildew disease controlling activity relative to untreated control
# Type: functional
row,Compound,Activity [%]
1,CNC(=O)/C(=N/OC)c1ccccc1COc1cc(C)ccc1C,69
2,CON=C(c1ccon1)c1ccccc1COc1cc(C)ccc1C,78

# System: Oculimacula yallundae
# Assay: Fungicidal activity against Oculimacula yallundae inoculated oat seeds followed by transfer of inoculated oat seedlings on foot of wheat seedlings followed by 100 ppm compound spraying assessed as wheat eye spot disease control activity relative to untreated control
# Type: functional
row,Compound,Activity [%]
1,CNC(=O)/C(=N/OC)c1ccccc1COc1cc(C)ccc1C,20
2,CCCN(CCOc1c(Cl)cc(Cl)cc1Cl)C(=O)n1ccnc1 [PROCHLORAZ],23
3,CON=C(c1ccon1)c1ccccc1COc1cc(C)ccc1C,56

# System: Blumeria graminis f. sp. tritici
# Assay: Fungicidal activity against Blumeria graminis f. sp. triticii inoculated on wheat seedlings followed by 125 ppm compound application 7 days after fungal inoculation assessed as infected leaf area (reference value: 37.8%)
# Type: functional
row,Compound,Activity [%]
1,CC(C)(C)C(=O)C(Oc1ccc(Cl)cc1)n1cncn1 (stereo not drawn) [TRIADIMEFON],1.4

# System: Blumeria graminis f. sp. tritici
# Assay: Fungicidal activity against Blumeria graminis f. sp. triticii inoculated on wheat seedlings followed by 100 ppm compound application 7 days after fungal inoculation assessed as infected leaf area (reference value: 37.8%)
# Type: functional
row,Compound,Activity [%]
1,CNC(=O)/C(=N/OC)c1ccccc1COc1cc(C)ccc1C,13
2,CON=C(c1ccon1)c1ccccc1COc1cc(C)ccc1C,9.3

# System: Blumeria graminis f. sp. tritici
# Assay: Fungicidal activity against Blumeria graminis f. sp. triticii inoculated on wheat seedlings followed by 400 ppm compound application 7 days after fungal inoculation assessed as wheat powdery mildew disease controlling activity relative to untreated control
# Type: functional
row,Compound,Activity [%]
1,CNC(=O)/C(=N/OC)c1ccccc1COc1cc(C)ccc1C,63
2,CON=C(c1ccon1)c1ccccc1COc1cc(C)ccc1C,86

# System: Oculimacula yallundae
# Assay: Fungicidal activity against Oculimacula yallundae inoculated oat seeds followed by transfer of inoculated oat seedlings on foot of wheat seedlings followed by 400 ppm compound spraying assessed as wheat eye spot disease control activity relative to untreated control
# Type: functional
row,Compound,Activity [%]
1,CNC(=O)/C(=N/OC)c1ccccc1COc1cc(C)ccc1C,56
2,CCCN(CCOc1c(Cl)cc(Cl)cc1Cl)C(=O)n1ccnc1 [PROCHLORAZ],66
3,CON=C(c1ccon1)c1ccccc1COc1cc(C)ccc1C,76

# System: Blumeria graminis f. sp. tritici
# Assay: Fungicidal activity against Blumeria graminis f. sp. triticii inoculated on wheat seedlings followed by 7.8 ppm compound application 7 days after fungal inoculation assessed as wheat powdery mildew disease controlling activity relative to untreated control
# Type: functional
row,Compound,Activity [%]
1,CON=C(c1ccon1)c1ccccc1COc1cc(C)cc(C)c1C,90
2,CON=C(c1ccon1)c1ccccc1COc1ccccc1C,90
3,CON=C(c1ccon1)c1ccccc1COc1cc(C)ccc1C,90

# System: Blumeria graminis f. sp. tritici
# Assay: Fungicidal activity against Blumeria graminis f. sp. triticii inoculated on wheat seedlings followed by 500 ppm compound application 7 days after fungal inoculation assessed as wheat powdery mildew disease controlling activity relative to untreated control
# Type: functional
row,Compound,Activity [%]
1,CCCON=C(c1ccon1)c1ccccc1COc1cc(C)ccc1C,<90
2,CON=C(c1ccon1)c1ccccc1COc1ccc(F)cc1,90
3,CON=C(c1ccon1)c1ccccc1COc1ccccc1OC,<90
4,CON=C(c1ccon1)c1ccccc1COc1ccccc1,90
5,Cc1ccc(C)c(OCc2ccccc2C(=NO)c2ccon2)c1,<90
6,CON=C(c1ccon1)c1ccccc1COc1c(Cl)cccc1Cl,<90
7,CON=C(c1ccon1)c1ccccc1COc1cccc(F)c1,90
8,CON=C(c1ccon1)c1ccccc1COc1ccccc1[N+](=O)[O-],<90
9,CON=C(c1ccon1)c1ccccc1COc1cccc(Cl)c1,90
10,CON=C(c1ccon1)c1ccccc1COc1ccc(Cl)cc1Cl,<90
11,CON=C(c1ccon1)c1ccccc1COc1ccc(Cl)cc1,90
12,Cc1ccc(C)c(OCc2ccccc2C(=NOC(C)C)c2ccon2)c1,<90
13,CCON=C(c1ccon1)c1ccccc1COc1cc(C)ccc1C,<90
14,CON=C(c1ccon1)c1ccccc1Oc1ccccc1,90
15,C=CCON=C(c1ccon1)c1ccccc1COc1cc(C)ccc1C,<90
16,CON=C(c1ccon1)c1ccccc1COc1ccccc1C(F)(F)F,90
17,CON=C(c1ccon1)c1ccccc1COc1cc(Cl)cc(Cl)c1Cl,<90

# System: Oculimacula yallundae
# Assay: Fungicidal activity against Oculimacula yallundae assessed as inhibition of mycelial growth
# Type: functional, organism-based
row,Compound,EC50 [ppm]
1,CON=C(c1ccon1)c1ccccc1COc1cc(C)cc(C)c1C,3.9
2,CNC(=O)/C(=N/OC)c1ccccc1COc1cc(C)ccc1C,1.09
3,CCCN(CCOc1c(Cl)cc(Cl)cc1Cl)C(=O)n1ccnc1 [PROCHLORAZ],0.04
4,CON=C(c1ccon1)c1ccccc1COc1ccccc1C,1.42
5,CON=C(c1ccon1)c1ccccc1COc1cc(C)ccc1C,1.05
